Results: patent US5494813A, “Nematode control with proteinase inhibitors” (Nickerson Biocem Limited, priority 1991, dated 1996)
“Also recorded” adds a separate entry of the source. Each block holds one compound with its values, some of them ahead of it.

Assays:
[1] = test system: endoproteinase activity of G. pallida; test: Endoproteinase activity of G. pallida female homogenate on RUBISCO with inhibitors/activators (SDS-PAGE densitometry); type: biochemical, Globodera pallida; details: RUBISCO substrate; for % enzyme activity: pH 5.7, 25 C, mean ± SEM, control 100 ± 7, 30 min
Protocol: Females of G. pallida were removed from potato roots and homogenised in EDTA (1 mm)-NaOH buffered distilled water (pH 6.0). The nematode homogenate was clarified by centrifugation at 13,000 g for 2 min and passed through non-absorbent cotton wool. The filtrate was used directly as the source of crude proteinases. pH was controlled using 0.1M of citrate-phosphate, sodium-phosphate and phosphate-carbonate buffers for pH 3.0-6.0, pH 6.5-7.5 and 8.0-8.5 respectively. These buffers were mixed with equal volume of the nematode homogenate and RUBISCO (150 μg) in 0.04% SDS resulting in a final reaction volume of 75 μl . […] The tubes were kept on ice for 30 min for full precipitation to occur. The supernatant was clarified by centrifugation (13,000 g, 2 min). The liberation of TCA-soluble amino groups from digested RUBISCO was used to quantify the proteolytic activity of nematode homogenates using 2, 4,6-trinitrobenzsulphonic acid (TNBS). TNBS reagent was made by mixing one volume of 0.3% (w/v) TNBS in water with four volume of 4% (w/v) sodium tetraborate in 0.15M NaOH. 250 μl of the reagent was mixed with 75 μl of sample and the reaction was allowed to proceed for 60 min at 30° C. before terminating by adding […] of 0.5M HCl. The absorbance at 340 nm was read against both homogenate and RUBISCO controls. Results are expressed as nmol of TCA-soluble amino groups liberated per min at 25° C. using a standard curve based on L-leucine in CP buffer.
Subsequent work was based on pH 5.7 using CP buffer. Females of G. pallida were rinsed in 50 mM CP buffer plus 1 mM EDTA and homogenised in ice-cold 50 mM CP buffer, centrifuging and filtering as before. The EDTA wash step was omitted for experiments using inhibitors or activators (see below).
25 μl of RUBISCO (from a stock solution in CP buffer of 1 mg/ml containing 0.04% SDS) was added to 20 μl of the sample homogenate and either 5 μl CP buffer or 5 μl of inhibitor/activator. After incubation for 60 min, the reaction was stopped by adding 30 μl of denaturing buffer and boiling for 2.5 min.
Stock inhibitor and activator solutions (Table 3) were made up in buffer and added to the nematode extract. The inhibitor/activator was pre-incubated with the enzyme solutions for 30 min at 25° C. before addition to the protein substrate
The gel was stained using Coomassie Brilliant Blue.
In order to elucidate the effect of activators and inhibitors on the proteolytic activity of nematode proteinase(s), RUBISCO was treated with the extract at 25 C. at a substrate protein-nematode protein ratio (w/w) of 8. After a 30 min incubation, the reaction mixture was terminated and analysed by SDS-PAGE. The RUBISCO substrate band in the gel was quantified densitometrically (Joyce Loble Chromscan 3), and the amount of protein remaining gave an estimation of the rate of activity of the proteinase.

[2] = test system: proteolytic activity of the 5HT-induced exudate from J2; test: Proteolytic activity of the 5HT-induced exudate from J2 of G. pallida (biotin/gelatin microtitre plate assay); type: biochemical, Globodera pallida; details: for Relative Activity (% of controls at that pH), pH 5 / Relative Activity (% of controls at that pH), pH 6.8: CpTi 10 μg/ml, rice preparations 30 μg/ml, other concentrations not given; for Relative Activity (% of controls at that pH), pH 6.8: maize preparation 20 μg/ml
Protocol: Freshly hatched juveniles of G. pallida were incubated in 2.5 mM 5'hydroxytryptamine in water at 20° C. for 4 h. This caused material to exude from the mouth which can be visualized at the mouth by allowing the protein stain Ponceau S to diffuse through a small aliquot of the experimental sample containing the nematodes under a microscope slide and coverslip. Worms were removed from the medium by centrifugation at 3000 g for 2 min before the fluid was dialyzed at 4° C. against distilled water overnight. The material was freeze-dried in aliquots at -70° C. until use and reconstituted to 2.5 μg protein/ml dH2 O at 5° C. immediately before use. Assays were carried out in a reaction mixture prepared by mixing 50 μl of this solution with 20 μl of either 100 mM phosphate buffer at pH 6.8 or 100 mM titrate/phosphate buffer at pH 5 plus either 10 μl of the inhibitor under test at the concentrations given in Table 7 or dH2 O for corresponding control rates for the uninhibited exudate.
The assays were carried out by coating microtitre plates (NUNC) with 50 μl of 0.01 μg/ml biotin/gelatin in carbonate buffer (pH 9.6) overnight at 4° C. The plates were blocked with 1% gelatin and washed with PBS before adding 75 μl of freshly prepared reaction mixture for 18 h. The reaction was stopped by washing wells eight times with PBS-tween before adding 100 μl of avidin-conjugated alkaline phosphatase with 1% goat serum to each well for 1 h. The wells were washed as before with PBS-tween followed by 2 rinses in PBS before addition of 100 μl of 1 mg/ml P-nitrophenyl phosphate in substrate buffer (10% diethanolamine and 0.5 mM MgCl2) at pH 9.8. The color development was read at 405 nm using a plate reader (Biorad). All samples were compared against a reference blank which lacked nematode exudate preparation in the reaction mixture.

Compound: N[C@@H](CS)C(=O)O [Cys, cysteine]
Effect on endoproteinase activity (in words) ([1]; pH 5.7): stimulated | % enzyme activity [1]: 112 ± 5% | Effect on proteolytic activity of the exudate at pH 5 (in words) [2]: stimulated | Relative Activity (% of controls at that pH), pH 5 [2]: > 100% | Relative Activity (% of controls at that pH), pH 6.8 ([2]; pH 6.8): 100%

Effect on endoproteinase activity (in words) ([1]; pH 5.7): stimulated | % enzyme activity [1]: 128 ± 11%
Compound: OC(CS)C(O)CS (centres unmarked) [DTT]

Compound: CC(C)C[C@H](NC(=O)[C@H]1O[C@@H]1C(=O)O)C(=O)NCCCCN=C(N)N [E-64, L-trans-epoxysuccinyl-leucylamide-(4-guanidino)-butane]
Inhibition of proteolytic activity ([1]; pH 5.7): 21% | % enzyme activity [1]: 79 ± 6% | Effect on proteolytic activity of the exudate at pH 5 (in words) [2]: inhibited | Relative Activity (% of controls at that pH), pH 5 [2]: 0% | Relative Activity (% of controls at that pH), pH 6.8 ([2]; pH 6.8): 5%

Compound: O=C(O)CN(CCN(CC(=O)O)CC(=O)O)CC(=O)O [EDTA]
Effect on proteolytic activity of the exudate at pH 5 (in words) [2]: stimulated | Relative Activity (% of controls at that pH), pH 5 [2]: > 100% | Effect on proteolytic activity of the exudate at pH 6.8 (in words) ([2]; pH 6.8): inhibited | Relative Activity (% of controls at that pH), pH 6.8 ([2]; pH 6.8): 93%

Compound: CC(=O)[O][Hg][c]1ccccc1 [PMA]
Effect on endoproteinase activity (in words) ([1]; pH 5.7): almost total inhibition | % enzyme activity [1]: 11 ± 6%

Compound: p-aminomercuribenzoate [PAMBA]
Effect on endoproteinase activity (in words) ([1]; pH 5.7): potent inhibitor; also recorded: almost total inhibition | % enzyme activity [1]: 3 ± 4%
